Like-named read-outs stand apart in the source and are kept apart here.

Data on one compound can be found in US11230542B2, “Inhibitors of integrated stress response pathway” (Praxis Biotech LLC, priority 2017, dated 2022).

Test [1] relates to CHO cells. In words: Protein translation assay (puromycin incorporation in CHO cells, unstressed or Tg-stressed). Type of test: cell-based, Chinese hamster. To be noted: Cricetulus griseus, media alone 100%. In short, it runs like this:
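CHO cells pretreated 2 h with 1 μM compound (unstressed), or 1 h with 100 nM or 1 μM then co-treated with 300 nM Tg. Pulse-labelled with 10 μg/ml puromycin for 30 min, then anti-puromycin western blot with densitometry. Unstressed values normalized to media alone (100%); stressed recovery scaled between media alone (100%) and Tg alone (0%).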

For test [2], the system named is 19-month old male C57Bl/6J mice. In words: Learning memory in aged mice (8-arm radial water maze, hippocampal ATF4). To be noted: 5 mg/kg intraperitoneally, versus vehicle. The class given is in vivo, mouse. From the text: Wild type 19-month old male C57Bl/6J mice were used in an 8-arm radial water maze (RAWM) to measure the hippocampal-mediated learning memory. The maze involved a pool 118.5 cm in diameter and 25 cm high with 8 arms, each 41 cm in length, and an escape platform that could be moved. The pool was filled with water that was rendered opaque by adding white paint (Crayola, 54-2128-053). The escape platform remains hidden during the experiment. Visual cues were placed around the room such that they were visible to animals exploring the maze. […]
Behavioral tests were recorded and scored using a video tracking and analysis setup (Ethovision XT 8.5, Noldus Information Technology). The program automatically analyzed the number of incorrect arm entries (termed number of errors) made per trial. […]
At the end of the behavioral test, animals were sacrificed and the hippocampi were extracted and immediately frozen in liquid nitrogen and then stored at −80° C. […] Protein concentration in supernatants was determined using BCA Protein Assay Kit (Pierce). […]
ATF4 (11815) antibody (Cell Signaling Technologies) and β-actin (Sigma-Aldrich) antibodies were used as primary antibodies. […] Quantification of protein bands was done by densitometry using ImageJ software.

Test [3] concerns CT26 colon carcinoma cell line. The experiment in a line: Tumor growth and density model. The class given is in vivo, mouse. To be noted: 10 mg/kg daily oral gavage for 13 days from day 6 post tumor-cell injection. Here is the method: Wild type six-weeks-old male Balb/c mice obtained from the vivarium Fundacion Ciencia & Vida Chile (Santiago, Chile) were used. Mice were housed in independent plastic cages in a room maintained at 25° C. with a 12-h:12-h light:dark cycle.
1×10^6 CT26 colon carcinoma cell line (ATCC #CRL-2638, ATCC Manassas, Va.) were injected subcutaneously in the right lower flank of each animal as described (Nat Commun. 2012 Jun. 12; 3:896). Non-injected animals were used as controls. At day 6 post tumor-cell injection, mean tumor volume was about 100 mm^3, animals were weighed and randomized into two groups and treated with 10 mg/kg of compound 3 formulated in 50% Polyethylene glycol (PEG-400) in distilled water, or with vehicle (50% PEG-400 in distilled water) by daily oral gavage for 13 days.
At the end of the study, tumors were measured with digital caliper and tumors volumes, expressed in mm^3, were calculated with the following formula: Tumor volume (mm^3)=(a×b^2)/2 where “a” is the largest perpendicular diameter and “b” is the smallest diameter. Animals were then sacrificed and tumors were extracted and weighed. The volumes and weight of the tumors of each animal are shown in FIGS. 12A and 12B respectively. Bars represent mean±SEM. Statistical analyses were performed using GraphPad Prism software and significant difference was assessed by t test (*<0.05).

Take `O=C(COc1ccc(Cl)cc1)N[C@H]1CC[C@H](NC[C@@H](O)COc2ccc(Cl)cc2)CC1` (single isomer, unassigned) [Compound 3, (+)-2-(4-chlorophenoxy)-N-(4-((3-(4-chlorophenoxy)-2-hydroxypropyl)amino)cyclohexyl)acetamide]: the activity at 0.1 µM in test [1] (CHO cells stressed with 300 nM Tg, Tg alone 0%, read-out: % Recovery of protein expression (100 nM test compound)) was found to be 69.4%. The activity at 1 µM in test [1] (CHO cells stressed with 300 nM Tg, Tg alone 0%, read-out: % Recovery of protein expression (1 μM test compound)) was 155%. The activity at 1 µM in test [1] (unstressed CHO cells, 2 h, read-out: % Protein expression relative to untreated (1 μM test compound)) amounted to 162%. In addition, in test [2], the “ATF4 expression normalized to β-actin in hippocampi” value is recorded as “lower levels of ATF4 expression compared with vehicle-treated animals” and the “RAWM task performance (learning memory)” value is listed as “performed better than vehicle-treated animals”. Besides, in test [3], the “tumor density (weight/volume ratio)” value is on record as “significantly reduce the tumor density” and the tumor volume result is listed as “does not reduce tumor volume”.
